Test results from patent publication US9073895B2 (Boehringer Ingelheim International GmbH, priority 2010, dated 2015).

Experiments:
[1] = molecular target: T1, recombinant human FLAP protein (Homo sapiens, UniProt P20292); experiment: FLAP binding assay (SPA, displacement of [125I]L-691,831); details: membranes of sf9 cells expressing human FLAP, [125I]L-691,831 probe; read-out: hFLAP binding IC50
T1 construct: made in house; host or cells: Sf9 insect cells (membrane fraction, 100,000 x g pellet)
T1 sequence (P20292 1-161): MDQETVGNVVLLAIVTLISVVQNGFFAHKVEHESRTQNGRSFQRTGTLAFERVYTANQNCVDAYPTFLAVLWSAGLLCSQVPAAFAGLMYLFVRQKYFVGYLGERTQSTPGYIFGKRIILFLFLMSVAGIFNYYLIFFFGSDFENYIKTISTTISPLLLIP
Procedure, shortened: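 Membranes from sf9 cells expressing human FLAP (5 μg/well) were bound to WGA SPA beads (200 μg/well). Nonspecific binding was defined with 10 μM unlabelled L-691,831.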

[2] = tested on: synthesis of LTB4 in human whole blood; experiment: Human whole blood LTB4 production inhibition assay; format: cell-based; details: heparinized human whole blood, calcimycin 20 μM, plasma LTB4; read-out: HuWB IC50
Procedure, shortened: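 Whole-blood cellular format, heparinized human donors: 15 min compound pretreatment, then 30 min calcimycin stimulation (20 μM final), both at 37° C. Low-speed centrifugation yields plasma, in which LTB4 is read by homogeneous time-resolved fluorescence immunoassay.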

Row | IC50 [1] [nM] | IC50 [2] [nM] | SMILES
1 | 190 | 17100 | CCCCc1ccc2cc(NC(=O)C(C)(c3ccc(-c4cncc(OC)c4)cc3)C(C)C)ccc2n1 (stereo not drawn) [Example 115, N-(2-butylquinolin-6-yl)-2-[4-(5-methoxypyridin-3-yl)phenyl]-2,3-dimethylbutanamide]
2 | 430 | 10800 | COc1ncc(-c2ccc(C(C)(C(=O)Nc3ccc(-c4csc(C)n4)cc3)C(C)C)cc2)cn1 (stereo not drawn) [Example 116, 2-[4-(2-methoxypyrimidin-5-yl)phenyl]-2,3-dimethyl-N-[4-(2-methyl-1,3-thiazol-4-yl)phenyl]butanamide]
3 | 9.3 | 1530 | Cc1nc(-c2ccc(NC(=O)C(C)(c3ccc(-c4cnc(N)nc4)cc3)C(C)C)cc2)cs1 (stereo not drawn) [Example 117, 2-[4-(2-aminopyrimidin-5-yl)phenyl]-2,3-dimethyl-N-[4-(2-methyl-1,3-thiazol-4-yl)phenyl]butanamide]
4 | 260 | 10700 | Cc1nc(-c2ccc(NC(=O)C(C)(c3ccc(-c4cnn(C)c4)cc3)C(C)C)cc2)cs1 (stereo not drawn) [Example 118, 2,3-dimethyl-2-[4-(1-methyl-1H-pyrazol-4-yl)phenyl]-N-[4-(2-methyl-1,3-thiazol-4-yl)phenyl]butanamide]
5 | 3.95 | 986 | Cc1nc(-c2ccc(NC(=O)C(C)(c3ccc(-c4cnc(N)nc4)cc3)C(C)C)nc2)cs1 (stereo not drawn) [Example 119, 2-[4-(2-aminopyrimidin-5-yl)phenyl]-2,3-dimethyl-N-[5-(2-methyl-1,3-thiazol-4-yl)pyridin-2-yl]butanamide]
6 | 11.5 | 1270 | Cc1nc(-c2ccc(NC(=O)C3(c4ccc(-c5cnc(N)nc5)cc4)CCCCC3)cc2)cs1 [Example 120, 1-[4-(2-aminopyrimidin-5-yl)phenyl]-N-[4-(2-methyl-1,3-thiazol-4-yl)phenyl]cyclohexane-carboxamide]
7 | 19 | 1880 | Cc1nc(-c2ccc(NC(=O)C3(c4ccc(-c5cnc(N)nc5)cc4)CCOCC3)cc2)cs1 [Example 121, 4-[4-(2-aminopyrimidin-5-yl)phenyl]-N-[4-(2-methyl-1,3-thiazol-4-yl)phenyl]tetrahydro-2H-pyran-4-carboxamide]
8 | 9.53 | 1040 | Cc1nc(-c2ccc(NC(=O)C3(c4ccc(-c5cnc(N)nc5)cc4)CCOCC3)nc2)cs1 [Example 122, 4-[4-(2-aminopyrimidin-5-yl)phenyl]-N-[5-(2-methyl-1,3-thiazol-4-yl)pyridin-2-yl]tetrahydro-2H-pyran-4-carboxamide]
9 | 4 | 919 | Cc1nc(-c2ccc(NC(=O)C3(c4ccc(-c5cnc(N)nc5)cc4)CCCCC3)nc2)cs1 [Example 123, 1-[4-(2-aminopyrimidin-5-yl)phenyl]-N-[5-(2-methyl-1,3-thiazol-4-yl)pyridin-2-yl]cyclohexanecarboxamide]
10 | 77.5 | 2170 | CC(C)(C)c1nsc(NC(=O)C2(c3ccc(-c4cnc(N)nc4)cc3)CCOCC2)n1 [Example 124, 4-[4-(2-aminopyrimidin-5-yl)phenyl]-N-(3-tert-butyl-1,2,4-thiadiazol-5-yl)tetrahydro-2H-pyran-4-carboxamide]
11 | 173 | 5560 | Nc1ncc(-c2ccc(C3(C(=O)Nc4cc(C(F)(F)F)no4)CCOCC3)cc2)cn1 [Example 125, 4-[4-(2-aminopyrimidin-5-yl)phenyl]-N-[3-(trifluoromethyl)-1,2-oxazol-5-yl]tetrahydro-2H-pyran-4-carboxamide]
12 | 180 | 12000 | CC(C)(C)c1noc(NC(=O)C2(c3ccc(-c4cnc(N)nc4)cc3)CCCCC2)n1 [Example 126, 1-[4-(2-aminopyrimidin-5-yl)phenyl]-N-(3-tert-butyl-1,2,4-oxadiazol-5-yl)cyclohexanecarboxamide]
13 | 9 | 3220 | CC(C)C(C)(C(=O)Nc1ccccn1)c1ccc(-c2cnc(N)nc2)cc1 (stereo not drawn) [Example 127, 2-[4-(2-aminopyrimidin-5-yl)phenyl]-2,3-dimethyl-N-(pyridin-2-yl)butanamide]
14 | 140 | 815 | Cc1nc(-c2ccc(NC(=O)C3(c4ccc(-c5cnc(N)nc5)cn4)CCOCC3)nc2)cs1 [Example 128, 4-[5-(2-aminopyrimidin-5-yl)pyridin-2-yl]-N-[5-(2-methyl-1,3-thiazol-4-yl)pyridin-2-yl]tetrahydro-2H-pyran-4-carboxamide]
15 | 10.4 | 8620 | Nc1ncc(-c2ccc(C3(C(=O)Nc4ccccn4)CCC3)cc2)cn1 [Example 129, 1-[4-(2-aminopyrimidin-5-yl)phenyl]-N-(pyridin-2-yl)cyclobutanecarboxamide]
16 | 1.52 | 224 | COc1cncc(-c2ccc(NC(=O)C3(c4ccc(-c5cnc(N)nc5)cc4)CCC3)nc2)c1 [Example 130, 1-[4-(2-aminopyrimidin-5-yl)phenyl]-N-(5'-methoxy-3,3'-bipyridin-6-yl)cyclobutanecarboxamide]
17 | 2.2 | 414 | Cc1nc(-c2ccc(NC(=O)C3(c4ccc(-c5cnc(N)nc5)cc4)CCC3)nc2)cs1 [Example 131, 1-[4-(2-aminopyrimidin-5-yl)phenyl]-N-[5-(2-methyl-1,3-thiazol-4-yl)pyridin-2-yl]cyclobutanecarboxamide]
18 | 220 | 1510 | COc1cncc(-c2ccc(NC(=O)C3(c4ccc(-c5cnc(N)nc5)nc4)CCOCC3)nc2)c1 [Example 132, 4-[6-(2-aminopyrimidin-5-yl)pyridin-3-yl]-N-(5′-methoxy-3,3′-bipyridin-6-yl)tetrahydro-2H-pyran-4-carboxamide]
19 | 9.4 | 4400 | Cc1nc(-c2ccc(NC(=O)C(c3ccc(-c4cnc(N)nc4)cc3)C(C)C)nc2)cs1 (stereo not drawn) [Example 133, 2-[4-(2-aminopyrimidin-5-yl)phenyl]-3-methyl-N-[5-(2-methyl-1,3-thiazol-4-yl)pyridin-2-yl]butanamide]
20 | 17.5 | 651 | COc1ccc(-c2ccc(NC(=O)C3(c4ccc(-c5cnc(N)nc5)cc4)CCOCC3)nc2)cn1 [Example 134, 4-[4-(2-aminopyrimidin-5-yl)phenyl]-N-(6'-methoxy-3,3'-bipyridin-6-yl)tetrahydro-2H-pyran-4-carboxamide]
21 | 11.1 | 738 | COc1cncc(-c2ccc(NC(=O)C3(c4ccc(-c5cnc(N)nc5)cc4)CCOCC3)nc2)c1 [Example 135, 4-[4-(2-aminopyrimidin-5-yl)phenyl]-N-(5'-methoxy-3,3'-bipyridin-6-yl)tetrahydro-2H-pyran-4-carboxamide]
22 | 10.3 | 4690 | CC(C)C(C)(C(=O)Nc1ccc(Cl)cn1)c1ccc(-c2cnc(N)nc2)cc1 (stereo not drawn) [Example 136, 2-[4-(2-aminopyrimidin-5-yl)phenyl]-N-(5-chloropyridin-2-yl)-2,3-dimethylbutanamide]
23 | 300 | 11800 | Nc1ncc(-c2ccc(C3(C(=O)Nc4ccccn4)CCOCC3)cc2)cn1 [Example 138, 4-[4-(2-aminopyrimidin-5-yl)phenyl]-N-(pyridin-2-yl)tetrahydro-2H-pyran-4-carboxamide]
24 | 39 | 11300 | Nc1ncc(-c2ccc(C3(C(=O)Nc4ccc5ccccc5n4)CCOCC3)cc2)cn1 [Example 142, 4-[4-(2-aminopyrimidin-5-yl)phenyl]-N-(quinolin-2-yl)tetrahydro-2H-pyran-4-carboxamide]
25 | 17.1 | 646 | Nc1ncc(-c2ccc(C3(C(=O)Nc4ccc(-c5cscn5)cn4)CCOCC3)cc2)cn1 [Example 143, 4-[4-(2-aminopyrimidin-5-yl)phenyl]-N-[5-(1,3-thiazol-4-yl)pyridin-2-yl]tetrahydro-2H-pyran-4-carboxamide]
26 | 66 | 1590 | Cn1cnc(-c2ccc(NC(=O)C3(c4ccc(-c5cnc(N)nc5)cc4)CCOCC3)nc2)c1 [Example 144, 4-[4-(2-aminopyrimidin-5-yl)phenyl]-N-[5-(1-methyl-1H-imidazol-4-yl)pyridin-2-yl]tetrahydro-2H-pyran-4-carboxamide]
27 | 11.1 | 752 | COC(=O)c1ccc(NC(=O)C2(c3ccc(-c4cnc(N)nc4)cc3)CCOCC2)nc1 [Example 146, methyl 6-[({4-[4-(2-aminopyrimidin-5-yl)phenyl]tetrahydro-2H-pyran-4-yl}carbonyl)amino]pyridine-3-carboxylate]
28 | 490 | 2900 | Nc1ncc(-c2ccc(C3(C(=O)Nc4ccc(N5CCOCC5)cc4)CCOCC3)cc2)cn1 [Example 147, 4-[4-(2-aminopyrimidin-5-yl)phenyl]-N-[4-(mopholin-4-yl)phenyl]tetrahydro-2H-pyran-4-carboxamide]
29 | 360 | 3980 | Nc1ncc(-c2ccc(C3(C(=O)Nc4ccc(CN5CCS(=O)(=O)CC5)cc4)CCOCC3)cc2)cn1 [Example 148, 4-[4-(2-aminopyrimidin-5-yl)phenyl]-N-{4-[(1,1-dioxidothiomorpholin-4-yl)methyl]phenyl}tetrahydro-2H-pyran-4-carboxamide]
30 | 260 | 1460 | Nc1ncc(-c2ccc(C3(C(=O)Nc4ccc(N5CCCCC5)cc4)CCOCC3)cc2)cn1 [Example 149, 4-[4-(2-aminopyrimidin-5-yl)phenyl]-N-[4-(piperidin-1-yl)phenyl]tetrahydro-2H-pyran-4-carboxamide]
